{
  "source": "paper PMC5979600",
  "about": "“An Organic Solvent-Tolerant Lipase with Both Hydrolytic and Synthetic Activities from the Oleaginous Fungus Mortierella echinosphaera” (International Journal of Molecular Sciences, 2018)",
  "system": "T1, extracellular lipase from Mortierella echinosphaera CBS 575.75 (M. echinosphaera lipase)",
  "T1 construct": "native enzyme purified from culture filtrate (ammonium sulfate, Sephadex G-75, Macro-Prep High Q, Sephacryl S-200 HR); about 30 kDa by SDS-PAGE",
  "assay": "p-nitrophenol release, Lineweaver-Burk",
  "type": "biochemical",
  "conditions": "pH 6.8, 25 °C, 30 min, 0.05-3.2 mM substrate; free enzyme",
  "data": [
    {"smiles": "CCCCCCCCCCCCCCCC(=O)Oc1ccc([N+](=O)[O-])cc1", "note": "[p-nitrophenyl palmitate]", "values": [
      {"measurement": "Km", "value": 336, "unit": "µM"}
    ]},
    {"smiles": "CCCCCCCCCC(=O)Oc1ccc([N+](=O)[O-])cc1", "note": "[pNP-decanoate]", "values": [
      {"measurement": "Km", "value": 333, "unit": "µM"}
    ]}
  ]
}
